# Values of other authors as cited in patent EP2742940A1, “Salts of aza-bicyclo-di-aryl ethers for adminstration once daily, twice daily or thrice daily” (IP Gesellschaft für Management mbH, priority 2012, dated 2014).
# Values joined by “and” are separate entries in the source; they are usually repeats but may differ in a detail not shown here. Equal values may be shown once. Read-outs that look alike come from different tables or passages of the source.
# Experiments:
# P-Erk = conditions: A375 cells, P-Erk In-Cell-Western, 3 hrs treatment
# [1] = rat; for %F: p.o. (3 mg/kg); for PK-parameters compared to Example 1: one-way analysis of variance
# A375 cells = conditions: XTT, three days after compound addition
# BRAF-MEK-ERK cascade = BRAF-MEK-ERK cascade assay, mean ± SEM, n=3
# [2] = at 65°C
# [3] = design: Initial water content / Hygroscopy @ 85%RH: unit not given here; conditions: for Initial water content: Example 7 comparison of salt forms; for moisture gain: at 85% RH
# [4] = dogs (N=3), 1.4 µmol/kg p.o.
# DUSP6 = conditions: A375 tumor bearing athymic-nude rats, single oral dose, at 12h and 24h (p=0.003 and p=0.006), two-way analysis of variance
# [5] = male Wistar rats, oral 10 mg/kg, Mean All (n=8)
# [6] = male Wistar rats, oral 10 mg/kg, Median [range]
# [7] = male Wistar rats, oral 10 mg/kg, individual rats 01-08, listed as mono-fumarate, 10 mg/kg
smiles,measurement,setting,value
"O=S(=O)(Nc1c(Nc2ccc(I)cc2F)c(F)c(F)c2ccoc12)C1(CC(O)CO)CC1 (racemic) [Example 1, N-(4,5-difluoro-6-((2-fluoro-4-iodophenyl)amino)benzofuran-7-yl)-1-(2,3-dihydroxypropyl)cyclopropane-1-sulfonamide]",EC50,P-Erk,12.2 nM
same,%F,[1],87%
same,GI50,A375 cells,17.6 nM
same,IC50,BRAF-MEK-ERK cascade,2.1 ± 0.58 nM
"Cc1cn(-c2cc(NC(=O)c3ccc(C)c(Nc4nccc(-c5cccnc5)n4)c3)cc(C(F)(F)F)c2)cn1 [nilotinib, 4-methyl-3-[[4-(3-pyridinyl)-2-pyrimidinyl]amino]-N-[5-(4-methyl-1 H-imidazol-1-yl)-3-(trifluoromethyl)phenyl] benzamide]",solubility in lactic acid,[2],> 600 mg/mL
"Cc1ccc(-c2ccc(O[C@H]3CN4CCC3CC4)cn2)cc1.O=C(O)CC(=O)O [Malonate, malonate salt of (R)-3-(6-(4-methylphenyl)-pyridin-3-yloxy)-1-aza-bicyclo[2.2.2]octane]",Hygroscopy @ 85%RH,[3],1.3
same,Initial water content,[3],∼0
same,moisture gain,[3],1.3%
"Cc1ccc(-c2ccc(O[C@H]3CN4CCC3CC4)cn2)cc1.O=C(O)/C=C/C(=O)O [Compound B, fumarate salt of (R)-3-(6-(4-methylphenyl)-pyridin-3-yloxy)-1-aza-bicyclo[2.2.2]octane]",Plasma (pmoles/ml±SD),[4]; 0.5 hour,49.4 ± 21.9 pmol/mL
same,Plasma (pmoles/ml±SD),[4]; 1 hour,67.6 ± 22.6 pmol/mL
same,Plasma (pmoles/ml±SD),[4]; 2 hour,75.2 ± 36.8 pmol/mL
same,Plasma (pmoles/ml±SD),[4]; 4 hour,27.5 ± 13.3 pmol/mL
same,Plasma (pmoles/ml±SD),[4]; 8 hour,8.1 ± 3.0 pmol/mL
same,Plasma (pmoles/ml±SD),[4]; 24 hour,0.8 ± 0.7 pmol/mL
same,Plasma (pmoles/ml±SD),"[4]; fumarate salt form, 0.25 hour",14.7 ± 1.1 pmol/mL
same,T1/2,"male Wistar rats, oral 10 mg/kg, Mean All",3.76 h
same,AUClast,[5],249 ng·h/mL
same,AUClast/Dose (h·ng/mL)/(mg/kg),[5],25.4 (h·ng/mL)/(mg/kg)
same,Cmax,[5],161 ng/mL
same,Cmax/Dose (ng/mL)/(mg/kg),[5],16.5 (ng/mL)/(mg/kg)
same,"Concentration in plasma, Time (h) 0.25",[5],149 ng/mL
same,"Concentration in plasma, Time (h) 0.5",[5],132 ng/mL
same,"Concentration in plasma, Time (h) 1",[5],77.4 ng/mL
same,"Concentration in plasma, Time (h) 2",[5],38.9 ng/mL
same,"Concentration in plasma, Time (h) 3",[5],19.5 ng/mL
same,"Concentration in plasma, Time (h) 4",[5],10.6 ng/mL
same,"Concentration in plasma, Time (h) 6",[5],5.10 ng/mL
same,"Concentration in plasma, Time (h) 8",[5],2.54 ng/mL
same,"Concentration in plasma, Time (h) 24",[5],0320 ng/mL
same,Tlast,[6],24.0 h
same,Tmax,[6],0.25 h
same,AUClast,[7],202 ng·h/mL and 259 ng·h/mL and 212 ng·h/mL and 188 ng·h/mL and 269 ng·h/mL and 292 ng·h/mL and 298 ng·h/mL and 272 ng·h/mL
same,AUClast/Dose (h·ng/mL)/(mg/kg),[7],20.8 (h·ng/mL)/(mg/kg) and 26.3 (h·ng/mL)/(mg/kg) and 21.4 (h·ng/mL)/(mg/kg) and 192 (h·ng/mL)/(mg/kg) and 28.0 (h·ng/mL)/(mg/kg) and 30.1 (h·ng/mL)/(mg/kg) and 29.6 (h·ng/mL)/(mg/kg) and 27.9 (h·ng/mL)/(mg/kg)
same,Cmax,[7],167 ng/mL and 162 ng/mL and 78.4 ng/mL and 99.7 ng/mL and 242 ng/mL and 204 ng/mL and 184 ng/mL and 153 ng/mL
same,Cmax/Dose (ng/mL)/(mg/kg),[7],17.2 (ng/mL)/(mg/kg) and 16.4 (ng/mL)/(mg/kg) and 7.88 (ng/mL)/(mg/kg) and 102 (ng/mL)/(mg/kg) and 25.2 (ng/mL)/(mg/kg) and 21.1 (ng/mL)/(mg/kg) and 18.3 (ng/mL)/(mg/kg) and 15.7 (ng/mL)/(mg/kg)
same,"Concentration in plasma, Time (h) 0.25",[7],167 ng/mL and 162 ng/mL and 77.8 ng/mL and 890 ng/mL and 242 ng/mL and 204 ng/mL and 93.3 ng/mL and 153 ng/mL
same,"Concentration in plasma, Time (h) 0.5",[7],104 ng/mL and 130 ng/mL and 784 ng/mL and 99.7 ng/mL and 143 ng/mL and 179 ng/mL and 184 ng/mL and 138 ng/mL
same,"Concentration in plasma, Time (h) 1",[7],67.1 ng/mL and 88.8 ng/mL and 41.3 ng/mL and 62.8 ng/mL and 83.2 ng/mL and 80.8 ng/mL and 101 ng/mL and 94.2 ng/mL
same,"Concentration in plasma, Time (h) 2",[7],27.4 ng/mL and 39.2 ng/mL and 378 ng/mL and 24.6 ng/mL and 47.1 ng/mL and 37.6 ng/mL and 54.8 ng/mL and 42.6 ng/mL
same,"Concentration in plasma, Time (h) 3",[7],12.4 ng/mL and 17.7 ng/mL and 25.3 ng/mL and 11.7 ng/mL and 19.6 ng/mL and 20.6 ng/mL and 25.1 ng/mL and 23.2 ng/mL
same,"Concentration in plasma, Time (h) 4",[7],906 ng/mL and 10.6 ng/mL and 13.3 ng/mL and 5.90 ng/mL and 9.71 ng/mL and 11.8 ng/mL and 13.0 ng/mL and 11.1 ng/mL
same,"Concentration in plasma, Time (h) 6",[7],749 ng/mL and 3.47 ng/mL and 7.63 ng/mL and 5.79 ng/mL and 4.29 ng/mL and 4.24 ng/mL and 4.05 ng/mL and 3.87 ng/mL
same,"Concentration in plasma, Time (h) 8",[7],291 ng/mL and 2.35 ng/mL and 3.62 ng/mL and 2.62 ng/mL and 2.46 ng/mL and 1.94 ng/mL and 238 ng/mL and 207 ng/mL
same,T1/2,[7],2.44 h and 5.02 h and 3.62 h and 3.71 h and 2.02 h and 3.97 h and 5.51 h
same,Tlast,[7],8.0 h (2×) and 24.0 h (6×)
same,Tmax,[7],0.25 h (3×) and 025 h (2×) and 0.50 h (3×)
same,AUClast,"rats, acute oral dosing of 10 mg/kg",249+-42 h ng/ml
same,Cmax of the free form in plasma,"rats, acute oral dosing of 10 mg/kg (relative to free form)",161+-53 ng/ml
same,Hygroscopy @ 85%RH,[3],0.5
same,Initial water content,[3],<0.5
same,moisture gain,[3],0.5%
"Cc1ccc(-c2ccc(O[C@H]3CN4CCC3CC4)cn2)cc1.O=C(O)/C=C\C(=O)O [Maleate, maleate salt of (R)-3-(6-(4-methylphenyl)-pyridin-3-yloxy)-1-aza-bicyclo[2.2.2]octane]",Hygroscopy @ 85%RH,[3],0.3
same,Initial water content,[3],<0.1
same,moisture gain,[3],0.3%
"Cc1ccc(-c2ccc(O[C@H]3CN4CCC3CC4)cn2)cc1.O=C(O)CCC(=O)O [Succinate, succinate salt of (R)-3-(6-(4-methylphenyl)-pyridin-3-yloxy)-1-aza-bicyclo[2.2.2]octane]",Hygroscopy @ 85%RH,[3],0.3
same,Initial water content,[3],∼4.5
same,moisture gain,[3],0.3%
"O=S(=O)(Nc1c(Nc2ccc(I)cc2F)c(F)c(F)c2ccoc12)C1(C[C@@H](O)CO)CC1 [Example 1B, (R)-N-(4,5-difluoro-6-((2-fluoro-4-iodophenyl)amino)benzofuran-7-yl)-1-(2,3-dihydroxypropyl)cyclopropane-1-sulfonamide]",EC50,P-Erk,15.6 nM
same,PK-parameters compared to Example 1,[1],improved PK-parameters
same,%F,[1],126%
same,GI50,A375 cells,29.6 nM
"O=S(=O)(Nc1c(Nc2ccc(I)cc2F)c(F)c(F)c2ccoc12)C1(C[C@H](O)CO)CC1 [Example 1A, (S)-N-(4,5-difluoro-6-((2-fluoro-4-iodophenyl)amino)benzofuran-7-yl)-1-(2,3-dihydroxypropyl)cyclopropane-1-sulfonamide]",EC50,P-Erk,6.4 nM
same,PK-parameters compared to Example 1,[1],improved PK-parameters
same,%F,[1],132%
same,lowering levels of DUSP-6 in tumor,DUSP6,significantly more effective than Example- IB
same,GI50,A375 cells,13.4 nM
same,IC50,BRAF-MEK-ERK cascade,2 ± 0.25 nM
"Cc1ccc(-c2ccc(O[C@H]3CN4CCC3CC4)cn2)cc1.Cl [Hydrochloride, Form A, chloride salt (hydrochloride) of (R)-3-(6-(4-methylphenyl)-pyridin-3-yloxy)-1-aza-bicyclo[2.2.2]octane]",Hygroscopy @ 85%RH,[3],∼5
same,Initial water content,[3],∼5
same,moisture gain,[3],about 5%
"Cc1ccc(-c2ccc(O[C@H]3CN4CCC3CC4)cn2)cc1.O=P(O)(O)O [Phosphate, Form A, phosphate salt of (R)-3-(6-(4-methylphenyl)-pyridin-3-yloxy)-1-aza-bicyclo[2.2.2]octane]",Hygroscopy @ 85%RH,[3],0.2
same,Initial water content,[3],∼0.5
same,moisture gain,[3],0.2%
